Data from US7884244B2, “Therapeutic fluoroethylcyano guanidines” (Allergan, Inc., priority 2007, dated 2011).

Legend:
Type in all cases: cell-based
alpha2B receptor = molecular target: T1, alpha2B receptor (Homo sapiens, UniProt P18089); test: Receptor Selection and Amplification Technology (RSAT) assay, alpha2B; conditions: for EC50: read-out: Alpha 2B EC50; for Alpha 2B IA (intrinsic activity): ratio of maximal effect of drug to maximal effect of standard full agonist brimonidine (UK14304)
T1 construct: expressed in transfected cells; host or cells: NIH-3T3 cells
T1 sequence (P18089 1-450): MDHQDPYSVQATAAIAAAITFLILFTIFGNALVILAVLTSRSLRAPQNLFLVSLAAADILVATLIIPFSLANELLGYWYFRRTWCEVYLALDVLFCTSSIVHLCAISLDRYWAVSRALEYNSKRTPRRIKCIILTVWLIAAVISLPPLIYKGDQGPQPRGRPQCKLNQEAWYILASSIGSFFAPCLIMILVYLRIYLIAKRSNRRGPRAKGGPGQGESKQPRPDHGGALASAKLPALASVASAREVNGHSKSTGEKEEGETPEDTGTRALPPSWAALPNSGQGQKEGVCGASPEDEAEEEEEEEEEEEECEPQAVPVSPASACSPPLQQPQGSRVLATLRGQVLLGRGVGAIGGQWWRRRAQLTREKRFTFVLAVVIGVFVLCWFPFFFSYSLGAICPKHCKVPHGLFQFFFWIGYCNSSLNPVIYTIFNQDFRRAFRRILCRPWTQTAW
Protocol: (§1) The RSAT assay measures a receptor-mediated loss of contact inhibition that results in selective proliferation of receptor-containing cells in a mixed population of confluent cells. The increase in cell number is assessed with an appropriate transfected marker gene such as […]-galactosidase, the activity of which can be easily measured in a 96-well format. Receptors that activate the G protein, Gq, elicit this response. Alpha2 receptors, which normally couple to Gi, activate the RSAT response when coexpressed with a hybrid Gq protein that has a Gi receptor recognition domain, called Gq/i5.
(§2) NIH-3T3 cells are plated at a density of 2×10^6 cells in 15 cm dishes and maintained in Dulbecco's modified Eagle's medium supplemented with 10% calf serum. One day later, cells are cotransfected by calcium phosphate precipitation with mammalian expression plasmids encoding p-SV-[…]-galactosidase (5-10 μg), receptor (1-2 μg) and G protein (1-2 μg). 40 μg salmon sperm DNA may also be included in the transfection mixture. Fresh media is added on the following day and 1-2 days later, cells are harvested and frozen in 50 assay aliquots. Cells are thawed and 100 μl added to 100 μl aliquots of various concentrations of drugs in triplicate in 96-well dishes. Incubations continue 72-96 hr at 37° C. After washing with phosphate-buffered saline, […]-galactosidase enzyme activity is determined by adding 200 μl of the chromogenic substrate (consisting of 3.5 mM o-nitrophenyl-[…]-D-galactopyranoside and 0.5% nonidet P-40 in phosphate buffered saline), incubating overnight at 30° C. and measuring optical density at 420 nm. The absorbance is a measure of enzyme activity, which depends on cell number and reflects a receptor-mediated cell proliferation. The efficacy or intrinsic activity is calculated as a ratio of the maximal effect of the drug to the maximal effect of a standard full agonist for each receptor subtype. Brimonidine, also called UK14304, the chemical structure of which is shown below, is used as the standard agonist for the alpha2A, alpha2B and alpha2C receptors. The EC50 is the concentration at which the drug effect is half of its maximal effect.
(§3) The results of the RSAT assay with several exemplary compounds of the invention are disclosed in Table 1 above together with the chemical formulas of these exemplary compounds. EC50 values are nanomolar. NA stands for “not active” at concentrations less than 10 micromolar. IA stands for “intrinsic activity.”

alpha2A receptor = molecular target: T2, alpha2A receptor (Homo sapiens, UniProt P08913); test: Receptor Selection and Amplification Technology (RSAT) assay, alpha2A
T2 construct: expressed in transfected cells; host or cells: NIH-3T3 cells
T2 sequence (P08913 1-465): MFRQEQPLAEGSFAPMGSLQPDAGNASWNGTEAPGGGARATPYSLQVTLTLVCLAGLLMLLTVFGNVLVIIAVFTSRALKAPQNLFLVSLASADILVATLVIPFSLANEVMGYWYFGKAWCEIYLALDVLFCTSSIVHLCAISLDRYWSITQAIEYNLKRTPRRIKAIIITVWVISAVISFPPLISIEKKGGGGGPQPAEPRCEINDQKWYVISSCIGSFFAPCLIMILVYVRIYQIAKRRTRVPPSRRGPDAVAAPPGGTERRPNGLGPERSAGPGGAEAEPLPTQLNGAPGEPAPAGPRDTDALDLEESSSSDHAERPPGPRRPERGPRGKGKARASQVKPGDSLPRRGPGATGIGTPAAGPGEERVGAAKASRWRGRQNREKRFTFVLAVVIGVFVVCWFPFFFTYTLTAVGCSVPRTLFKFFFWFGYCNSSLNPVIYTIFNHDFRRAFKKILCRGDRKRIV
Protocol: as §1, §2, §3

alpha2C receptor = molecular target: T3, alpha2C receptor (Homo sapiens, UniProt P18825); test: Receptor Selection and Amplification Technology (RSAT) assay, alpha2C; conditions: for EC50 / Alpha 2C EC50: RSAT, transfected NIH-3T3 cells with Gq/i5, not active = not active at concentrations less than 10 micromolar; for EC50: read-out: Alpha 2C EC50; for Alpha 2C IA (intrinsic activity): ratio of maximal effect of drug to maximal effect of standard full agonist brimonidine (UK14304)
T3 construct: expressed in transfected cells; host or cells: NIH-3T3 cells
T3 sequence (P18825 1-462): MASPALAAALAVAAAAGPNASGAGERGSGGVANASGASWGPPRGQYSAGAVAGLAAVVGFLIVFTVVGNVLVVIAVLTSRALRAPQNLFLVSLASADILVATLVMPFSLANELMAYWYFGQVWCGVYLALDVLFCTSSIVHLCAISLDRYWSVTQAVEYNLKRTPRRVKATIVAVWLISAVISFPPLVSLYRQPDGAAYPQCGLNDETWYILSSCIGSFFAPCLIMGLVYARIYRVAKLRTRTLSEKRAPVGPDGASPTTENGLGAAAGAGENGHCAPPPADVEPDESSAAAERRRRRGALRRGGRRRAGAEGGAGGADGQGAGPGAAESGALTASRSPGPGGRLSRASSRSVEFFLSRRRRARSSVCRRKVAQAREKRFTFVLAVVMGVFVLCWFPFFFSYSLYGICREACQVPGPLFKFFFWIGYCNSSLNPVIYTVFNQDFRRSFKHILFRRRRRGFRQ
Protocol: as §1, §2, §3

[1] = RSAT, transfected NIH-3T3 cells with Gq/i5, not active = not active at concentrations less than 10 micromolar

Compound | EC50 (alpha2B receptor; [1]) | Alpha 2B IA (intrinsic activity) (alpha2B receptor) | Alpha 2A EC50 (alpha2A receptor; [1]) | EC50 (alpha2C receptor) | Alpha 2C IA (intrinsic activity) (alpha2C receptor) | Alpha 2C EC50 (alpha2C receptor) | Alpha 2B EC50 (alpha2B receptor; [1]) | EC50 (alpha2A receptor; RSAT, transfected NIH-3T3 cells with Gq/i5, not active = not active at concentrations less than 10 micromolar, read-out: Alpha 2A EC50) | Alpha 2A IA (intrinsic activity) (alpha2A receptor; ratio of maximal effect of drug to maximal effect of standard full agonist brimonidine (UK14304))
N#C/N=C(/NCCF)NCc1cccc(Br)c1 | 1450 nM | 0.82 | not active | 2640 nM | 0.32 |  |  |  | 
N#C/N=C(/NCCF)NC1Cc2ccccc2C1 | 783 nM | 0.35 | not active |  |  | not active |  |  | 
N#C/N=C(/NCCF)NCc1cccc2c1OCC2 | 341 nM | 0.87 | not active | 358 nM | 0.58 |  |  |  | 
Cc1cccc2c1CCC2N/C(=N\C#N)NCCF (centres unmarked) | 73.9 nM | 0.95 | not active | 914 nM | 0.51 |  |  |  | 
N#C/N=C(/NCCF)NC1CCc2ccccc21 (centres unmarked) | 417 nM | 0.47 | not active | 1780 nM | 0.33 |  |  |  | 
N#C/N=C(/NCCF)NC1CCc2c(Br)cccc21 (centres unmarked) | 2570 nM | 0.74 | not active |  |  | not active |  |  | 
N#C/N=C(/NCCF)N[C@H]1CCc2ccccc21 | 176 nM | 0.92 | not active |  |  | not active |  |  | 
N#C/N=C(/NCCF)NC1CCc2c(Cl)cccc21 (centres unmarked) | 988 nM | 0.3 | not active |  |  | not active |  |  | 
N#C/N=C(/NCCF)NC1CCc2c(F)cccc21 (centres unmarked) | 282 nM | 0.36 | not active |  |  | not active |  |  | 
Cc1cccc(CN/C(=N/C#N)NCCF)c1Cl | 78.9 nM | 0.93 | not active | 472 nM | 0.84 |  |  |  | 
N#C/N=C(\NCCF)NC1CCc2ccc(F)cc21 (centres unmarked) | 167 nM | 0.42 | not active | 376 nM | 0.4 |  |  |  | 
N#C/N=C(\NCCF)NC1CCc2ccc(Cl)cc21 (centres unmarked) | 232 nM | 0.31 | not active | 946 nM | 0.36 |  |  |  | 
Cc1ccc2c(c1)C(N/C(=N\C#N)NCCF)CC2 (centres unmarked) | 518 nM | 0.34 | not active |  |  | not active |  |  | 
Cc1cccc2c1CCCC2N/C(=N\C#N)NCCF (centres unmarked) | 94.3 nM | 1.06 | not active | 1480 nM | 0.41 |  |  |  | 
N#C/N=C(/NCCF)NC1CCCc2c(Cl)cccc21 (centres unmarked) | 296 nM | 0.37 | not active |  |  | not active |  |  | 
CCc1cccc2c1CCCC2N/C(=N\C#N)NCCF (centres unmarked) |  | 0.35 | not active |  |  | not active | high |  | 
N#C/N=C(/NCCF)NC1CCCc2c(F)cccc21 (centres unmarked) | 231 nM | 0.69 | not active | 1970 nM | 0.42 |  |  |  | 
CCc1cccc2c1CCC2N/C(=N\C#N)NCCF (centres unmarked) | 1040 nM | 0.59 | not active |  |  | not active |  |  | 
N#C/N=C(/NCCF)NC1CCc2cccc(Br)c21 (centres unmarked) | 941 nM | 0.85 | not active |  |  | not active |  |  | 
N#C/N=C(\NCCF)NC1CCc2cccc(F)c21 (centres unmarked) | 475 nM | 0.65 | not active |  |  | not active |  |  | 
N#C/N=C(\NCCF)NC1CCc2cccc(Cl)c21 (centres unmarked) | 642 nM | 0.7 | not active |  |  | not active |  |  | 
Cc1cccc2c1CC[C@@H]2N/C(=N\C#N)NCCF | 60.1 nM | 1.09 |  | 1530 nM | 0.46 |  |  | 759 nM | 0.35
N#C/N=C(\NCCF)NC1CCc2ccc(F)c(F)c21 (centres unmarked) | 560 nM | 0.5 | not active |  |  | not active |  |  | 
N#C/N=C(\NCCF)NC(Cc1ccccc1)c1ccccc1 (centres unmarked) | 98.6 nM | 0.73 | not active |  |  | not active |  |  | 
